Results published in US20250368872A1, “PROTEIN CROSSLINKING AGENT” (CANON KABUSHIKI KAISHA, priority 2023, published 2025).

System: silk fibroin powder
Assay: Evaluation of adsorptivity of groups containing aromatic rings to proteins having a β-sheet structure
Type: binding
Details: for Adsorption rate to fibroin (%): 0.02 mM, 0.15 mL methanol solution on 10 mg silk fibroin powder, air-dried, 0.15 mL water, stirred 5 minutes, supernatant absorbance; for Adsorptivity: class of adsorption rate to fibroin
Experimental: After distillation of methanol by air-drying, 0.15 mL of water was added. After stirring for 5 minutes, the supernatant was collected. The concentration of groups containing aromatic rings in the collected supernatant liquid and the percentage of adsorption of groups containing aromatic rings to fibroin were calculated by absorbance measurement, and the adsorptivity of groups containing aromatic rings to proteins having a β-sheet structure was evaluated by the following criteria.
“Evaluation A” and “Evaluation B” indicate the level at which groups containing aromatic rings adsorb strongly to proteins having a β-sheet structure, and “Evaluation C” indicates the low adsorptivity of groups containing aromatic rings.
• A: 90% or more • B: 60% or more but less than 90% • C: Less than 60%

Compound | Adsorption rate to fibroin (%) | Adsorptivity
O=C(O)CCOc1ccccc1-c1nc2ccccc2s1 [Compound 4] | 71% | B (60% or more but less than 90%)
Thioflavin T acid [reference compound] | 91% | A (90% or more)
O=C(O)CCNc1ccc(-c2nc3ccccc3s2)cc1 [Compound 2] | 79% | B (60% or more but less than 90%)
